Reference: PMC12406652 (Antimicrobial Agents and Chemotherapy, 2025)
Marks after values point to notes of the source that are not given here.

What was measured:
[1] = Plasma pharmacokinetics on Day 10 after multiple doses of CTB + LED-E q8h (VNRX-7145-102 Part 3); conditions: for AUC: AUCtau; for AUC / Cmax / half-life: geometric mean (CV %)
[2] = Urinary pharmacokinetics after single doses of LED-E; type: in vivo, human; conditions: urine, geometric mean (geometric CV %); for CL renal: human, oral
Protocol: Plasma and urine pharmacokinetics samples were assayed for LED-E, LED, and CTB, as appropriate using validated bioanalytical methods. […] Quantitation used separate weighted 1 /x^2 linear least-squares regression analyses generated from calibration standards. Exploratory screening for metabolites was performed for some samples. In both studies, plasma pharmacokinetic parameters were calculated using WinNonlin (Certara; Radnor, PA), and urine pharmacokinetic parameters were calculated using SAS (SAS Institute; Cary, NC).

[3] = Drug-drug interaction, single dose CTB 400 mg + LED-E 500 mg, cross-over (VNRX-7145-102 Part 1); conditions: human, plasma, oral
[4] = Plasma pharmacokinetics on Day 10 after multiple doses of LED-E q8h (VNRX-7145-101 Part 2, VNRX-7145-102 Part 2); type: in vivo, human; conditions: human, oral, plasma; for AUC / Cmax / Vd/F / half-life: geometric mean (CV %); for Vd/F: read-out: Vz/F; for Tmax: median (range); for half-life: read-out: t1/2 (converted)
Protocol: Quantitation used separate weighted 1 /x^2 linear least-squares regression analyses generated from calibration standards. Exploratory screening for metabolites was performed for some samples. […] […] […] Dose proportionality was analyzed using a power model in which pharmacokinetic exposure parameters and dose were converted to the natural log and linear regression results were reported, with the slope as the power estimate ([15]). […] In Part 2, achievement of steady-state concentrations was assessed using Tukey’s multiple comparison test for pre-dose and all dosing days (Days 2 to 10) for each dose level separately. […] Plasma pharmacokinetic parameters were calculated using noncompartmental analysis of the plasma and urine concentration-time data. […] AUCinf and Cmax were natural log-transformed before analysis, using a linear mixed effects model. […] In both studies, plasma pharmacokinetic parameters were calculated using WinNonlin (Certara; Radnor, PA), and urine pharmacokinetic parameters were calculated using SAS (SAS Institute; Cary, NC).

[5] = Urinary recovery on Day 10 after multiple doses of CTB + LED-E q8h (VNRX-7145-102 Part 3); conditions: for Ae0–8 / Fe0–8 / CL renal: urine, geometric mean (geometric CV %); for CL renal: human, oral, CLr
[6] = Urinary pharmacokinetics on Day 10 after multiple doses of LED-E q8h; type: in vivo, human; conditions: urine, geometric mean (geometric CV %); for CL renal: human, oral
Protocol: Quantitation used separate weighted 1 /x^2 linear least-squares regression analyses generated from calibration standards. Exploratory screening for metabolites was performed for some samples. […] Plasma pharmacokinetic parameters were calculated using noncompartmental analysis of the plasma and urine concentration-time data. […] AUCinf and Cmax were natural log-transformed before analysis, using a linear mixed effects model. […] In both studies, plasma pharmacokinetic parameters were calculated using WinNonlin (Certara; Radnor, PA), and urine pharmacokinetic parameters were calculated using SAS (SAS Institute; Cary, NC).

[7] = Plasma pharmacokinetics after single ascending doses of LED-E (VNRX-7145-101 Part 1); type: in vivo; conditions: human, oral; for Vd/F: read-out: Vz/F; for Tmax: median (range)
Protocol: Quantitation used separate weighted 1 /x^2 linear least-squares regression analyses generated from calibration standards. Exploratory screening for metabolites was performed for some samples. […] Single-dose plasma pharmacokinetic parameters were determined in Part 1, and both single-dose (Day 1) and multiple-dose ([…]) parameters were determined in Part 2. […] Dose proportionality was analyzed using a power model in which pharmacokinetic exposure parameters and dose were converted to the natural log and linear regression results were reported, with the slope as the power estimate ([15]). […] In Part 2, achievement of steady-state concentrations was assessed using Tukey’s multiple comparison test for pre-dose and all dosing days (Days 2 to 10) for each dose level separately. In both studies, plasma pharmacokinetic parameters were calculated using WinNonlin (Certara; Radnor, PA), and urine pharmacokinetic parameters were calculated using SAS (SAS Institute; Cary, NC).

[8] = human, oral, Day 10, CTB 400 mg + LED-E 300 mg q8h
[9] = human, oral, Day 10, CTB 400 mg + LED-E 500 mg q8h
[10] = Day 10, CTB 400 mg + LED-E 300 mg q8h
[11] = Day 10, CTB 400 mg + LED-E 500 mg q8h
[12] = multiple doses LED-E 500 mg q8h, after last dose (Day 10)
[13] = 1000 mg, single dose LED-E 1,000 mg, geometric mean (CV %)
[14] = single dose LED-E 100 mg, geometric mean (CV %)
[15] = single dose LED-E 200 mg, geometric mean (CV %)
[16] = single dose LED-E 300 mg, geometric mean (CV %)
[17] = single dose LED-E 500 mg, geometric mean (CV %)
[18] = single dose LED-E 800 mg, geometric mean (CV %)

CCC(=O)N[C@H]1Cc2cccc(C(=O)OCOC(=O)C(CC)CC)c2OB1O [Ledaborbactam etzadroxil]
Change in geometric mean AUCtau from the first to the last dose ([1]; Day 10, CTB 400 mg + LED-E 300 or 500 mg q8h, both dose groups): unchanged | AUC [1, 8]: 463 ng·h/mL | AUC [1, 9]: 1090 ng·h/mL | Cmax [1, 8]: 467 ng/mL | Cmax [1, 9]: 1180 ng/mL | Tmax ([1]; human, oral, Tmax, Day 10, CTB 400 mg + LED-E 300 mg q8h, median (range)): 0.5 h | half-life ([1]; human, oral, t1/2, Day 10, CTB 400 mg + LED-E 300 mg q8h): 7.68 h | half-life ([1]; human, oral, t1/2, Day 10, CTB 400 mg + LED-E 500 mg q8h): 10.7 h | CL renal ([2]; single dose LED-E 300 mg): 0.22 mL/min | CL renal ([2]; single dose LED-E 500 mg): 0.275 mL/min | CL renal ([2]; single dose LED-E 800 mg): 0.292 mL/min | CL renal ([2]; single dose LED-E 1000 mg): 0.393 mL/min | Ae0–8 ([2]; single dose LED-E 300 mg): 0.00779 (51.0) mg | Ae0–8 ([2]; single dose LED-E 500 mg): 0.0212 (38.4) mg | Ae0–48 ([2]; single dose LED-E 500 mg): 0.0212 (38.4) mg | Ae0–8 ([2]; single dose LED-E 800 mg): 0.0301 (49.2) mg | Ae0–48 ([2]; single dose LED-E 800 mg): 0.0301 (49.2) mg | Ae0–8 ([2]; single dose LED-E 1000 mg): 0.0542 (68.6) mg | Ae0–48 ([2]; single dose LED-E 1000 mg): 0.0542 (68.6) mg | AUC(0-inf) [3]: 1070 ng·h/mL | Cmax [3]: 787 ng/mL | AUC(0-inf) ([3]; 500 mg): 1140 ng·h/mL | Cmax ([3]; 500 mg): 1040 ng/mL | AUC ([4]; Day 10, LED-E 75 mg q8h, 0 to 8 h post-dose): 85.5 ng·h/mL | Cmax ([4]; Day 10, LED-E 75 mg q8h): 122 ng/mL | Vd/F ([4]; Day 10, LED-E 75 mg q8h): 3880 L | Tmax ([4]; Day 10, LED-E 75 mg q8h): 0.5 h | AUC ([4]; Day 10, LED-E 150 mg q8h): 309 ng·h/mL | Cmax ([4]; Day 10, LED-E 150 mg q8h): 447 ng/mL | Vd/F ([4]; Day 10, LED-E 150 mg q8h): 3350 L | Tmax ([4]; Day 10, LED-E 150 mg q8h): 0.5 h | AUC ([4]; Day 10, LED-E 300 mg q8h): 480 ng·h/mL | Cmax ([4]; Day 10, LED-E 300 mg q8h): 629 ng/mL | Vd/F ([4]; Day 10, LED-E 300 mg q8h): 6080 L | Tmax ([4]; Day 10, LED-E 300 mg q8h): 0.5 h | AUC ([4]; Day 10, LED-E 500 mg q8h): 1050 ng·h/mL | Cmax ([4]; Day 10, LED-E 500 mg q8h): 919 ng/mL | Vd/F ([4]; Day 10, LED-E 500 mg q8h): 6290 L | half-life ([4]; 75 mg, Day 10, LED-E 75 mg q8h): 3.07 h | half-life ([4]; 150 mg, Day 10, LED-E 150 mg q8h): 4.78 h | half-life ([4]; 300 mg, Day 10, LED-E 300 mg q8h): 6.75 h | half-life ([4]; 500 mg, Day 10, LED-E 500 mg q8h): 9.14 h | Ae0–8 [5, 10]: 0.0113 (41.4) mg | Fe0–8 [5, 10]: 0.00377 (41.4) % | Ae0–8 [5, 11]: 0.0271 (58.4)^d mg | Fe0–8 [5, 11]: 0.00542 (58.4)^d % | Fe0-8 recovered in urine, of the last dose ([5]; Day 10, across CTB 400 mg + LED-E 300 mg q8h and CTB 400 mg + LED-E 500 mg q8h): less than 0.01% | CL renal [5, 10]: 0.402 mL/min | CL renal [5, 11]: 0.42 mL/min | CL renal ([6]; multiple doses LED-E 150 mg q8h): 0.247 mL/min | CL renal ([6]; multiple doses LED-E 300 mg q8h): 0.121 mL/min | CL renal ([6]; multiple doses LED-E 500 mg q8h): 0.433 mL/min | Ae0–48 ([6]; multiple doses LED-E 75 mg q8h, after last dose (Day 10)): below the limit of quantification | Ae0–48 ([6]; multiple doses LED-E 150 mg q8h, after last dose (Day 10)): 0.00488 (47.9) mg | Ae0–48 ([6]; multiple doses LED-E 300 mg q8h, after last dose (Day 10)): 0.00378 (218) mg | Ae0–8 [6, 12]: 0.0273 (38.5) mg | Ae0–48 [6, 12]: 0.0273 (38.5) mg | Ae0–48 ([6]; multiple doses LED-E 500 mg q8h, after last dose (Day 10), listed as LED-E): 0.03 mg | AUC(0-inf) [7, 13]: 2300 ng·h/mL | Cmax [7, 13]: 1840 ng/mL | Vd/F [7, 13]: 2880 L | half-life ([7]; 1000 mg, single dose LED-E 1,000 mg, geometric mean (CV %), read-out: t1/2 (converted)): 4.59 h | half-life ([7]; across single doses LED-E 100 to 1,000 mg, read-out: Geometric mean t1/2): 2.8 to 4.7 h | AUC(0-inf) [7, 14]: 177 ng·h/mL | Cmax [7, 14]: 167 ng/mL | Vd/F [7, 14]: 2290 L | half-life ([7]; single dose LED-E 100 mg, geometric mean (CV %), read-out: t1/2 (converted)): 2.81 h | Tmax ([7]; single dose LED-E 100 mg): 0.5 h | AUC(0-inf) [7, 15]: 249 ng·h/mL | Cmax [7, 15]: 167 ng/mL | half-life ([7]; single dose LED-E 200 mg, geometric mean (CV %), read-out: t1/2 (converted)): 3.34 h | Tmax ([7]; single dose LED-E 200 mg): 0.5 h | AUC(0-inf) [7, 16]: 439 ng·h/mL | Cmax [7, 16]: 347 ng/mL | half-life ([7]; single dose LED-E 300 mg, geometric mean (CV %), read-out: t1/2 (converted)): 3.63 h | Tmax ([7]; single dose LED-E 300 mg): 0.5 h | AUC(0-inf) [7, 17]: 1290 ng·h/mL | Cmax [7, 17]: 917 ng/mL | Vd/F [7, 17]: 2640 L | half-life ([7]; single dose LED-E 500 mg, geometric mean (CV %), read-out: t1/2 (converted)): 4.7 h | AUC(0-inf) [7, 18]: 1720 ng·h/mL | Cmax [7, 18]: 1160 ng/mL | Vd/F [7, 18]: 2260 L | half-life ([7]; single dose LED-E 800 mg, geometric mean (CV %), read-out: t1/2 (converted)): 3.37 h | Tmax ([7]; single dose LED-E 800 mg): 0.5 h
